Measured values: patent publication US8518931B2, “Compounds and compositions as kinase inhibitors” (IRM LLC, priority 2008, dated 2013)

Biological target: T1, NPM-ALK (Homo sapiens, UniProt Q9UM73)
T1 construct: nucleophosmin (NPM, NPM1; human P06748) fusion partner; expressed in transfected cells; host or cells: murine BaF3 cells (DSMZ), transfected with pCIneo (Promega) coding for NPM-ALK and selected with G418; the other entry of the earlier key: Npm1 (Q61937, Nucleophosmin)
Experiment: NPM-ALK BaF3 assay (growth inhibition of BaF3-NPM-ALK cells)
Format: cell-based
Conditions: human NPM-ALK overexpressing murine BaF3 cells
Source text: The expression of NPM-ALK may be achieved by transfecting the BaF3 cell line with an expression vector pClneo™ (Promega Corp., Madison Wis., USA) coding for NPM-ALK and subsequent selection of G418 resistant cells. Non-transfected BaF3 cells depend on IL-3 for cell survival. In contrast, NPM-ALK expressing BaF3 cells (named BaF3-NPM-ALK hereinafter) can proliferate in the absence of IL-3 because they obtain proliferative signal through NPM-ALK kinase. Putative inhibitors of the NPM-ALK kinase therefore abolish the growth signal and may result in antiproliferative activity. The antiproliferative activity of putative inhibitors of the NPM-ALK kinase can however be overcome by addition of IL-3, which provides growth signals through an NPM-ALK independent mechanism. An analogous cell system using FLT3 kinase has also been described (see, E Weisberg et al. Cancer Cell; 1, 433-443 (2002)).
The inhibitory activity of the compounds of the invention may be determined as follows. In general, BaF3-NPM-ALK cells (15,000/microtitre plate well) are transferred to 96-well microtitre plates. Test compounds dissolved in dimethyl sulfoxide (DMSO) are added in a series of concentrations (dilution series) in such a manner that the final concentration of DMSO is not greater than 1% (v/v). After the addition, the plates are incubated for two days during which the control cultures without test compound are able to undergo two cell-division cycles. The growth of the BaF3-NPM-ALK cells is measured by means of YOPRO™ staining [T Idziorek et al. J. Immunol. Methods; 185: 249-258 (1995)]: 25 μl of lysis buffer comprising 20 mM sodium citrate, pH 4.0, 26.8 mM sodium chloride, 0.4% NP40, 20 mM EDTA and […] to each well. Cell lysis is completed within 60 min at room temperature and total amount of YOPRO™ bound to DNA is determined by measurement using the Cytofluor II 96-well reader (PerSeptive Biosystems) with the following settings: Excitation (nm) 485/20 and Emission (nm) 530/25.
IC50 values may be determined by a computer-aided system using the formula: IC50=[(ABStest−ABSstart)/(ABScontrol−ABSstart)]×100·(ABS=absorption)
In general, compounds of the invention have IC50 values from 1 nM to 10 μM. In some examples, compounds of the invention have IC50 values from 0.01 μM to 5 μM. In other examples, compounds of the invention have IC50 values from 0.01 μM to 1 μM, or more particularly from 1 nM to 1 μM.
Table 1 describes representative compounds of the invention, prepared following the procedures described above. IC50 values are as measured in an NPM-ALK BaF3 assay.

T1 sequence (Q9UM73 with tags, fused parts or gaps): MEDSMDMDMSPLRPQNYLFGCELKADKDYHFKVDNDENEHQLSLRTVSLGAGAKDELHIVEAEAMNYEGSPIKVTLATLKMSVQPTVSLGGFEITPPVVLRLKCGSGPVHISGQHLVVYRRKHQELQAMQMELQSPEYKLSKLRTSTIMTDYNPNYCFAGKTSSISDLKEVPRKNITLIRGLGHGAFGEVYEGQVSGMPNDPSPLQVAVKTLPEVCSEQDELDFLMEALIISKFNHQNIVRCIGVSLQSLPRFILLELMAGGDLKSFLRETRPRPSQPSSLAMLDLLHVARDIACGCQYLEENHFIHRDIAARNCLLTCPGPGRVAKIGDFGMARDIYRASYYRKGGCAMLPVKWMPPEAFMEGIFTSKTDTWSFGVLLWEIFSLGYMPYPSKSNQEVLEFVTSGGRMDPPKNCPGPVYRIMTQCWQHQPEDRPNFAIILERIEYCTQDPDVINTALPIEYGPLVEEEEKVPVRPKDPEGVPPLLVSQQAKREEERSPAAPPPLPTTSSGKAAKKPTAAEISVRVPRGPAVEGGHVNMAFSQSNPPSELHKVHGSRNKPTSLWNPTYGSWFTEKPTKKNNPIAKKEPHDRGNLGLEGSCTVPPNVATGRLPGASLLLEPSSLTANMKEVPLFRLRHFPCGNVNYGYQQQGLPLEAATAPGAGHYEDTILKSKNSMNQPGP

SMILES | IC50
COc1cc(C2CCN(C(=O)C3CCCN3)CC2)c(C)cc1Nc1nc(Nc2ccccc2S(=O)(=O)C(C)C)n2nccc2n1 (stereo not shown) [Ex 31] | 36 nM
COc1cc(C2CCN(C(=O)C3COCCN3)CC2)c(C)cc1Nc1nc(Nc2ccccc2S(=O)(=O)C(C)C)n2nccc2n1 (stereo not shown) [Ex 32] | 29 nM
COc1cc(C2CCN(C(=O)C3CCCN3C)CC2)c(C)cc1Nc1nc(Nc2ccccc2S(=O)(=O)C(C)C)n2nccc2n1 (stereo not shown) [Ex 34] | 25 nM
CC(C)S(=O)(=O)c1ccccc1Nc1nc(Nc2ccc(C3CCNCC3)cc2)nc2ccnn12 [Ex 37] | 130 nM
CC(C)S(=O)(=O)c1ccccc1Nc1nc(Nc2ccc3c(c2)CN(CCS(C)(=O)=O)CC3)nc2ccnn12 [Ex 39] | 464 nM
CC(C)S(=O)(=O)c1ccccc1Nc1nc(Nc2ccc3c(c2)CCN(CCS(C)(=O)=O)C3)nc2ccnn12 [Ex 40] | 136 nM
CC(C)S(=O)(=O)c1ccccc1Nc1nc(Nc2ccc3c(c2)CCNC3)nc2ccnn12 [Ex 41] | 85 nM
CC(C)S(=O)(=O)c1ccccc1Nc1nc(Nc2ccc3c(c2)CNCC3)nc2ccnn12 [Ex 42] | 1020 nM
COc1cc(C2CCN(C(=O)CNC[C@@H](O)CO)CC2)c(C)cc1Nc1nc(Nc2ccccc2S(=O)(=O)C(C)C)n2nccc2n1 [Ex 43] | 150 nM
CN[C@H](C)C(=O)N1CCC(c2cc(OC)c(Nc3nc(Nc4ccccc4S(=O)(=O)C(C)C)n4nccc4n3)cc2C)CC1 [Ex 44] | 18 nM
Cc1cc(C2CCN(CCS(C)(=O)=O)CC2)c(C)cc1Nc1nc(Nc2ccccc2S(=O)(=O)C(C)C)n2nccc2n1 [Ex 45] | 62 nM
Cc1cc(C2CCN(CCS(C)(=O)=O)CC2)ccc1Nc1nc(Nc2ccccc2S(=O)(=O)C(C)C)n2nccc2n1 [Ex 46] | 31 nM
Cc1cc(Nc2nc(Nc3ccccc3S(=O)(=O)C(C)C)n3nccc3n2)ccc1C1CCN(CCS(C)(=O)=O)CC1 [Ex 47] | 46 nM
Cc1cc(C2CCN(C(=O)CCN(C)C)CC2)c(C)cc1Nc1nc(Nc2ccccc2S(=O)(=O)C(C)C)n2nccc2n1 [Ex 48] | 59 nM
Cc1cc(C2CCN(C(=O)CCN(C)C)CC2)ccc1Nc1nc(Nc2ccccc2S(=O)(=O)C(C)C)n2nccc2n1 [Ex 49] | 129 nM
COc1cc(C2CCN(C(=O)[C@@H]3C[C@@H](O)CN3C)CC2)c(C)cc1Nc1nc(Nc2ccccc2S(=O)(=O)C(C)C)n2nccc2n1 [Ex 50] | 52 nM
COc1cc(C2CCN(C(=O)[C@@H]3C[C@H](F)CN3)CC2)c(C)cc1Nc1nc(Nc2ccccc2S(=O)(=O)C(C)C)n2nccc2n1 [Ex 54] | 42 nM
COc1cc(C2CCN(C(=O)[C@@H]3C[C@H](O)CN3)CC2)c(C)cc1Nc1nc(Nc2ccccc2S(=O)(=O)C(C)C)n2nccc2n1 [Ex 55] | 63 nM
COc1cc(C2CCN(C(=O)[C@H]3C[C@@H](O)CN3)CC2)c(C)cc1Nc1nc(Nc2ccccc2S(=O)(=O)C(C)C)n2nccc2n1 [Ex 56] | 79 nM
COc1cc(C2CCN(C(=O)CNC(C)C)CC2)c(C)cc1Nc1nc(Nc2ccccc2S(=O)(=O)C(C)C)n2nccc2n1 [Ex 57] | 32 nM
COc1cc(C2CCN(C(=O)CNCCO)CC2)c(C)cc1Nc1nc(Nc2ccccc2S(=O)(=O)C(C)C)n2nccc2n1 [Ex 58] | 86 nM
COc1cc(C2CCN(C(=O)CN3CC(O)C3)CC2)c(C)cc1Nc1nc(Nc2ccccc2S(=O)(=O)C(C)C)n2nccc2n1 [Ex 59] | 193 nM
COc1cc(C2CCN(C(=O)CN3CC[C@@H](O)C3)CC2)c(C)cc1Nc1nc(Nc2ccccc2S(=O)(=O)C(C)C)n2nccc2n1 [Ex 60] | 31 nM
COc1cc(C2CCN(C(=O)[C@H](C)N3CCC3)CC2)c(C)cc1Nc1nc(Nc2ccccc2S(=O)(=O)C(C)C)n2nccc2n1 [Ex 61] | 34 nM
COc1cc(C2CCN(C(=O)CN3CC[C@@H](F)C3)CC2)c(C)cc1Nc1nc(Nc2ccccc2S(=O)(=O)C(C)C)n2nccc2n1 [Ex 62] | 58 nM
COc1cc(C2CCN(C(=O)CNC(C)(C)C)CC2)c(C)cc1Nc1nc(Nc2ccccc2S(=O)(=O)C(C)C)n2nccc2n1 [Ex 63] | 53 nM

SMILES | IC50
COc1cc(C2CCN(C(=O)[C@H](C)NC(C)C)CC2)c(C)cc1Nc1nc(Nc2ccccc2S(=O)(=O)C(C)C)n2nccc2n1 [Ex 64] | 28 nM
COc1cc(C2CCN(C(=O)[C@H](C)NCCO)CC2)c(C)cc1Nc1nc(Nc2ccccc2S(=O)(=O)C(C)C)n2nccc2n1 [Ex 65] | 37 nM
COc1cc(C2CCN(C(=O)[C@H](C)N(C)C)CC2)c(C)cc1Nc1nc(Nc2ccccc2S(=O)(=O)C(C)C)n2nccc2n1 [Ex 66] | 32 nM
COc1cc(C2CCN(C(=O)[C@H](C)N)CC2)c(C)cc1Nc1nc(Nc2ccccc2S(=O)(=O)C(C)C)n2nccc2n1 [Ex 67] | 40 nM
COc1cc(C2CCN(C(=O)CN)CC2)c(C)cc1Nc1nc(Nc2ccccc2S(=O)(=O)C(C)C)n2nccc2n1 [Ex 68] | 17 nM
COc1cc(C2CCN(C(=O)[C@@H](N)CO)CC2)c(C)cc1Nc1nc(Nc2ccccc2S(=O)(=O)C(C)C)n2nccc2n1 [Ex 69] | 59 nM
COc1cc(C2CCN(C(=O)[C@H]3COCCN3)CC2)c(C)cc1Nc1nc(Nc2ccccc2S(=O)(=O)C(C)C)n2nccc2n1 [Ex 70, (R)-(4-(4-(4-(2-(isopropylsulfonyl)phenylamino)pyrazolo[1,5-a][1,3,5]triazin-2-ylamino)-5-methoxy-2-methylphenyl)piperidin-1-yl)(morpholin-3-yl)methanone] | 35 nM
COc1cc(C2CCN(C(=O)[C@@H]3COCCN3)CC2)c(C)cc1Nc1nc(Nc2ccccc2S(=O)(=O)C(C)C)n2nccc2n1 [Ex 71] | 22 nM
COc1cc(C2CCN(C(=O)CCCN(C)C)CC2)c(C)cc1Nc1nc(Nc2ccccc2S(=O)(=O)C(C)C)n2nccc2n1 [Ex 72] | 58 nM
COc1cc(C2CCN(C(=O)CO)CC2)c(C)cc1Nc1nc(Nc2ccccc2S(=O)(=O)C(C)C)n2nccc2n1 [Ex 73] | 40 nM
COCCNCC(=O)N1CCC(c2cc(OC)c(Nc3nc(Nc4ccccc4S(=O)(=O)C(C)C)n4nccc4n3)cc2C)CC1 [Ex 74] | 28 nM
COc1cc(C2CCN(C(=O)CN3CC[C@H](F)C3)CC2)c(C)cc1Nc1nc(Nc2ccccc2S(=O)(=O)C(C)C)n2nccc2n1 [Ex 76] | 75 nM
COc1cc(C2CCN(C(=O)CN3CC[C@H](O)C3)CC2)c(C)cc1Nc1nc(Nc2ccccc2S(=O)(=O)C(C)C)n2nccc2n1 [Ex 77] | 36 nM
COc1cc(C2CCN(C(=O)[C@H](C)N3CC[C@H](O)C3)CC2)c(C)cc1Nc1nc(Nc2ccccc2S(=O)(=O)C(C)C)n2nccc2n1 [Ex 78] | 36 nM
COc1cc(C2CCN(C(=O)[C@H](C)N3CC[C@@H](O)C3)CC2)c(C)cc1Nc1nc(Nc2ccccc2S(=O)(=O)C(C)C)n2nccc2n1 [Ex 79] | 38 nM
COc1cc(C2CCN(C(=O)[C@H](C)N3CCCC3)CC2)c(C)cc1Nc1nc(Nc2ccccc2S(=O)(=O)C(C)C)n2nccc2n1 [Ex 80] | 33 nM
COc1cc(C2CCN(C(=O)[C@@H](C)N3CCC3)CC2)c(C)cc1Nc1nc(Nc2ccccc2S(=O)(=O)C(C)C)n2nccc2n1 [Ex 81] | 26 nM
COc1cc(C2CCN(C3CCOCC3)CC2)c(C)cc1Nc1nc(Nc2ccccc2S(=O)(=O)C(C)C)n2nccc2n1 [Ex 83] | 23 nM
COc1cc(C2CCN(C3CCSCC3)CC2)c(C)cc1Nc1nc(Nc2ccccc2S(=O)(=O)C(C)C)n2nccc2n1 [Ex 84] | 25 nM
COc1cc(C2CCN(C(=O)[C@H]3COC(C)(C)CN3)CC2)c(C)cc1Nc1nc(Nc2ccccc2S(=O)(=O)C(C)C)n2nccc2n1 [Ex 85] | 34 nM
COc1cc(C2CCN(C(=O)[C@H](N)CO)CC2)c(C)cc1Nc1nc(Nc2ccccc2S(=O)(=O)C(C)C)n2nccc2n1 [Ex 86] | 34 nM
COc1cc(C2CCN(C(=O)[C@@H]3COC(C)(C)CN3)CC2)c(C)cc1Nc1nc(Nc2ccccc2S(=O)(=O)C(C)C)n2nccc2n1 [Ex 87] | 29 nM
COc1cc(C2CCN(C(=O)CN3CCOCC3)CC2)c(C)cc1Nc1nc(Nc2ccccc2S(=O)(=O)C(C)C)n2nccc2n1 [Ex 88] | 47 nM
COc1cc(C2CCN(CCC(=O)N3CCC3)CC2)c(C)cc1Nc1nc(Nc2ccccc2S(=O)(=O)C(C)C)n2nccc2n1 [Ex 89] | 15 nM
CNC(=O)CCN1CCC(c2cc(OC)c(Nc3nc(Nc4ccccc4S(=O)(=O)C(C)C)n4nccc4n3)cc2C)CC1 [Ex 90] | 13 nM
CC(C)S(=O)(=O)c1ccccc1Nc1nc(Nc2ccc(C3CCN(CC(N)=O)CC3)cc2)nc2ccnn12 [Ex 91] | 128 nM
